Measured values taken from patent EP3839043A1, “SCREENING METHODS FOR COMPOUNDS MODULATING POLYAMINE TRANSPORT” (Katholieke Universiteit Leuven, priority 2019, dated 2021).
Counter-ions that a name gives are not always drawn.

How the values were obtained:
[1] = biological target: T1, Microsomal ATP13A2 (Homo sapiens, UniProt Q9NQ11); experiment: ATPase assay (ADP-Glo Max), solubilized microsomes of SH-SY5Y cells overexpressing ATP13A2 WT; type: biochemical; conditions: for ATPase activity of ATP13A2 WT, screen for candidate substrates: 100 nM CaCl2, MnCl2, ZnCl2 or FeCl3, 100 µM SPD or SPM; for ATPase activity of ATP13A2, dose-response: indicated doses, microsomes 5 µg
T1 construct: expressed in transfected cells; host or cells: SH-SY5Y human neuroblastoma cells, lentiviral transduction; microsomes solubilised with DDM
T1 sequence (Q9NQ11 1-1175 isoform Q9NQ11-3): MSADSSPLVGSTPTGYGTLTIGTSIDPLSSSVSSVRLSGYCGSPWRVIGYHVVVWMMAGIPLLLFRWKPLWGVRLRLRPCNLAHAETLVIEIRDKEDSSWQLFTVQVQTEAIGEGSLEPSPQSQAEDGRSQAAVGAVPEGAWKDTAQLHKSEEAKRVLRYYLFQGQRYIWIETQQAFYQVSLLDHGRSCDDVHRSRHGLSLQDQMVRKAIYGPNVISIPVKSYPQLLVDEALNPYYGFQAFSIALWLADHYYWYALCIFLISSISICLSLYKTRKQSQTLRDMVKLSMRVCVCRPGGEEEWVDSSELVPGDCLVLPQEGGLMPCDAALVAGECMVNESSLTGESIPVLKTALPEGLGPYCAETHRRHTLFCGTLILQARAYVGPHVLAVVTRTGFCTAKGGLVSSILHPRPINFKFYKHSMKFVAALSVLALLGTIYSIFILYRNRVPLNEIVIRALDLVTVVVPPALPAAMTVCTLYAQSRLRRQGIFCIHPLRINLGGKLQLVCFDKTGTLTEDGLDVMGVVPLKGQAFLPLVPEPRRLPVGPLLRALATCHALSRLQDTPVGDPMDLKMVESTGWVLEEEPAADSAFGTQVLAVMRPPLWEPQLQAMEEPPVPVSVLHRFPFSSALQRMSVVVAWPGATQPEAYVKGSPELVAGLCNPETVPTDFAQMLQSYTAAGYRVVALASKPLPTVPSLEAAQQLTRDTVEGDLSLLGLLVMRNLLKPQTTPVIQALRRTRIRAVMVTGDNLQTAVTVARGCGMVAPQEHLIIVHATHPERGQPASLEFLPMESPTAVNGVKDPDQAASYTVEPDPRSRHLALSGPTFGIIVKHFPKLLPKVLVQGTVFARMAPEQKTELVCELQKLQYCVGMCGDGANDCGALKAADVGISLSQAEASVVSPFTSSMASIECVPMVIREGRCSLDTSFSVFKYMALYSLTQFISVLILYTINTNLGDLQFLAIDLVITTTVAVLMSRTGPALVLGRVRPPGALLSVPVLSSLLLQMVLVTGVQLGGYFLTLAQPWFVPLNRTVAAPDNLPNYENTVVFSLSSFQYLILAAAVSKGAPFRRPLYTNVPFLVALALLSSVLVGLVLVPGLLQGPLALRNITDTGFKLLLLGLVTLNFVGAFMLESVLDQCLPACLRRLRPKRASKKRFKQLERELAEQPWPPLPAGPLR
Method: Membrane fractionation - Transduced SH-SY5Y cells were seeded in […] at a density of 6 x 10^6 cells per plate. 24 h later, the cells were harvested following trypsinization and brief centrifugation (300 x g, 5 min). Subcellular fractionation was performed by differential centrifugation. The microsomal protein concentration was measured using the bicinchoninic acid assay (Thermo Fischer Scientific, Pierce) according to the manufacturer's instructions.
ATPase assay - The ATPase activity of ATP13A2 was assessed using a commercially available luminescence assay (ADP-Glo Max assay, Promega) that monitors the production of ADP via luciferase activity. The reactions were performed for 30 min (37°C) in a final volume of 25 µl. […] The assay was started by the addition of 5 mM ATP and was terminated by adding 25 µl of ADP-Glo Reagent. The 96-well plate was then incubated for 40 min at room temperature, followed by the addition of 50 µl of ADP-Glo Max Detection Reagent. After 40 min, luminescence was detected using a FlexStation 3.0 system (Molecular Devices). Dose-response curves and n/Km/Vmax values were calculated using GraphPad Prism Software (GraphPad Software Inc.).

[2] = biological target: T2, Purified ATP13A2 (Homo sapiens, UniProt Q9NQ11); experiment: ATPase assay (ADP-Glo Max), purified ATP13A2 from yeast expression system; type: biochemical; set-up: we obtained >95% pure, full length and solubilized ATP13A2; biotin acceptor domain (BAD) tag behind a thrombin cleavage site (C, cleaved yes); made in house; host or cells: S. cerevisiae W303-1B/Gal4-ΔPep4, pYeDP60 vector; conditions: for lipid concentration of maximal effect on ATPase activity / ATP13A2 activity, effect of regulatory lipids: purified ATP13A2; for lipid concentration of maximal effect on ATPase activity: 2 mM SPM; for ATP13A2 activity, effect of regulatory lipids: only in the presence of SPM
T2 sequence (Q9NQ11 1-1175 isoform Q9NQ11-3): T1 sequence (Q9NQ11 1-1175 isoform Q9NQ11-3)
Method: ATPase assay - The ATPase activity of ATP13A2 was assessed using a commercially available luminescence assay (ADP-Glo Max assay, Promega) that monitors the production of ADP via luciferase activity. The reactions were performed for 30 min (37°C) in a final volume of 25 µl. The assay reaction mixture contained 50 mM MOPS-KOH (pH 7), 100 mM KCI, 11 mM MgCl2, 1 mM DTT, 195 µM DDM, various concentrations of the indicated compound, and either microsomes (5 µg) harvested from SH-SY5Y cells overexpressing ATP13A2 (WT or mutants) or purified ATP13A2 (0.5 µg). When purified ATP13A2 was used, we included 125 µM PA, 125 µM PI(3,5)P2 and 19.5 µM DDM in the reaction buffer. The assay was started by the addition of 5 mM ATP and was terminated by adding 25 µl of ADP-Glo Reagent. The 96-well plate was then incubated for 40 min at room temperature, followed by the addition of 50 µl of ADP-Glo Max Detection Reagent. After 40 min, luminescence was detected using a FlexStation 3.0 system (Molecular Devices). Dose-response curves and n/Km/Vmax values were calculated using GraphPad Prism Software (GraphPad Software Inc.).
Transformation and overexpression of ATP13A2 in yeast - The S. cerevisiae W303-1B/Gal4-ΔPep4 strain (leu2-3, his3-11,15, trp1-1::TRP1-GAL10-GAL4, ura3-1, ade2-1, canr, cir^+, ΔPep4 MAT; a kind gift from Rosa Lopez Marques) was transformed according to the lithium acetate/single-stranded carrier DNA/polyethylene glycol method [Gietz, R. D. & Woods, R. A. Methods Enzymol 350, 87-96 (2002)], with the pYeDP60 vector containing a yeast codon optimized version of human ATP13A2 variant 2 (WT or the catalytically dead E343A mutant) followed by a thrombin cleavage site and a C-terminal BAD tag [Azouaoui, H. et al. PLoS One 9, e112176, (2014); Jidenko, M. et al.Protein Expr Purif 48, 32-42, (2006)]. The transformation mixture was grown for 48 h at 30°C on minimal medium agar plates lacking uracil (0.54% yeast nitrogen base without amino acids, 0.12% yeast drop-out mix without Ura, 2% glucose, and 2% agar) to select yeast colonies that acquired the plasmid. These colonies were then cultured in 20 ml of MM-Ura medium (0.67% yeast nitrogen base without amino acids, 0.19% yeast drop-out mix without Ura, and 2% glucose) and grown for 24 h at 28°C and 200 rpm. The MM-Ura yeast pre-culture was used to inoculate 100 ml of MM-Ura medium to a final OD600 of 0.2, followed by a 12 h incubation period (28°C and 200 rpm). The second pre-culture was inoculated into 4.5 l of YPGE2X medium (2% yeast extract, 2% bactopeptone, 1% glucose, and 2.7% ethanol) to a final OD600 of 0.05 and grown for 36 h (28°C and 175 rpm). ATP13A2-BAD expression was induced with 2% galactose, followed by a second galactose induction 12 h later. After another 12 h, the pellet was collected (1,000 x g; 10 min; 4°C).
Yeast membrane preparation - Yeast cells were broken with glass beads using a BeadBeater (BioSpec products). The lysis buffer contained 50 mM Tris-HCI (pH 7.5), 1 mM EDTA, 0.6 M sorbitol, 1 mM phenylmethylsulfonyl fluoride and SigmaFast protease inhibitor. To remove cell debris and nuclei, the crude extract was centrifuged at 2,000 x g for 20 min (4°C). The supernatant (S1) was centrifuged at 20,000 x g for 20 min (4°C) to pellet the heavy membrane fraction (P2), and the resulting supernatant (S2) was further centrifuged at 200,000 x g for 1 h (4°C). The resulting pellet (i.e., the light membrane fraction, P3) was resuspended in 20 mM HEPES-Tris (pH 7.4), 0.3 M sucrose and 0.1 mM CaCl2. The total protein concentration was determined using a Bradford assay (B6916, Sigma-Aldrich).
ATP13A2-BAD purification - The method used to purify ATP13A2 was based on the purification of overexpressed Drs2p from yeast membranes. Yeast P3 membranes were diluted to 5 mg of total protein/ml in SSR buffer (50 mM MOPS-KOH (pH 7), 100 mM KCI, 20% glycerol, 5 mM MgCl2, 1 mM DTT, and SigmaFast protease inhibitor cocktail) and solubilized using DDM, with a detergent to protein ratio of 1:1.

[3] = test system: SH-SY5Y cells; experiment: MUH cytotoxicity assay; type: cell-based, human; conditions: increasing concentrations, 24 h
Method: MUH cytotoxicity assay - SH-SY5Y cells were seeded in 96-well plates (1 X 10^4 cells per well) and allowed to adhere overnight. The cells were subsequently treated with increasing doses of the indicated compounds for 24-48 h. Following exposure, the cells were washed with PBS and stained with 300 µg/ml MUH (prepared in DMSO, dissolved in PBS) for 30 min at 37°C.

Which “ATPase activity of ATP13A2 WT, screen for candidate substrates” value (from here on “ATPase activity of ATP13A2 WT, screen”) [1] does the source give for `[Ca+2].[Cl-].[Cl-]` [CaCl2] here?
The value was “had no effect”.

For `[Cl][Fe]([Cl])[Cl]` [FeCl3], which “ATPase activity of ATP13A2 WT, screen” value [1] is on record?
The value was “did not increase ATP13A2 activity”.

Which “ATPase activity of ATP13A2 WT, screen” value [1] does the source give for `[Cl][Mn][Cl]` [MnCl2] here?
Its value is “did not increase ATP13A2 activity”.

What does the source list for `CC(=O)NCCCNCCCCNCCCN` [N1-acetylspermine, N^1-acetylspermine trihydrochloride]?
Vmax ± SEM ([1]; Microsomal ATP13A2): 98 ± 5 nmol ADP/mg/min; ATPase activity of ATP13A2, dose-response [1]: stimulate ATPase activity in a concentration-dependent manner

How did the “lipid concentration of maximal effect on ATPase activity” value [2] turn out when `CCCCCCCC/C=C\CCCCCCCC(=O)OC[C@H](COP(=O)(O)O)OC(=O)CCCCCCC/C=C\CCCCCCCC` [PA, 1,2-dioleoyl-sn-glycero-3-phosphate (sodium salt)] was run?
The value was 125 µM.

What about the “ATP13A2 activity, effect of regulatory lipids” value [2] of the same molecule?
Its value is “strongly stimulated”.

`CCCCCCCC/C=C\CCCCCCCC(=O)OC[C@H](COP(=O)(O)O[C@@H]1[C@H](O)[C@H](OP(=O)(O)O)[C@@H](O)[C@H](OP(=O)(O)O)[C@H]1O)OC(=O)CCCCCCC/C=C\CCCCCCCC` [PI(3,5)P2, 1,2-dioleoyl-sn-glycero-3-phospho-(1'-myo-inositol-3',5'-bisphosphate) (ammonium salt)] was tested. Which “lipid concentration of maximal effect on ATPase activity” value [2] did it give?
Its value is 125 µM.

What about the “ATP13A2 activity, effect of regulatory lipids” value [2] of the same molecule?
The value was “strongly stimulated”.

For `[Cl-].[Cl-].[Zn+2]` [ZnCl2], which “ATPase activity of ATP13A2 WT, screen” value [1] is on record?
Its value is “did not increase ATP13A2 activity”.

`N=C(N)NCCCCN.O=S(=O)(O)O` [agmatine, agmatine sulfate salt] was tested. Which “ATPase activity of ATP13A2, dose-response” value [1] did it give?
Its value is “did not induce ATP13A2 activity”.

For `NCCCCCN` [cadaverine], which “ATPase activity of ATP13A2, dose-response” value [1] is on record?
The value was “did not induce ATP13A2 activity”.

With `Cl.NCCc1ccc(O)c(O)c1` [dopamine, dopamine hydrochloride] as the molecule, how does the “ATPase activity of ATP13A2, dose-response” value [1] read?
The value was “did not induce ATP13A2 activity”.

How did the “ATPase activity of ATP13A2, dose-response” value [1] turn out when `NCCc1c[nH]cn1` [histamine] was run?
The value was “did not induce ATP13A2 activity”.

With `[Na+].[Na+].[Na+].[O]=[V]([O-])([O-])[O-]` [orthovanadate, sodium orthovanadate] as the molecule, how does the “SPM-induced ATPase activity, inhibition” value ([2]; 1 mM SPM, 0.25 mM orthovanadate, 125 µM PA/PI(3,5)P2) read?
The value was “blocked”.

How did the “viability of control cells” value [3] turn out when `Cl.Cl.NCCCCN` [putrescine, putrescine dihydrochloride] was run?
Its value is “not cytotoxic”.

What about the “ATPase activity of ATP13A2, dose-response” value [1] of the same molecule?
Its value is “did not induce ATP13A2 activity”.
